# Measurements reported in patent US10138275B2, “Crystalline powder of cyclic peptide compound, preparation method for same, and uses thereof” (SHANGHAI TECHWELL BIOPHARMACEUTICAL CO., LTD, priority 2014, dated 2018).
# Starred links: 1 amine or outer side, 2 acyl side, 3 side chain; linkers in the order of their positions; H or OH if unused. Positions of bridges follow the written chain, without caps; N, C: chain ends. Non-standard residues stand in square brackets, D forms with d. Residues, ends and D or L forms follow the SMILES beside them. *: point of attachment. hTyr(3S-OH,4S-OH,3'-OSO3H) = N[C@H](C(=O)O)[C@H](O)[C@@H](O)c1ccc(O)c(OS(=O)(=O)O)c1; Orn(4R-OH,5R-OH) = O=C([C@H](C[C@@H](O)[C@@H](O)N[*:3])N[*:1])[*:2]; Pro(3S-OH,4S-Me) = C[C@H]1CN[C@H](C(=O)O)[C@H]1O; X1 = CCCCCOc1ccc(-c2cc(-c3ccc(C(=O)*)cc3)no2)cc1; Gln(3R-OH) = NC(=O)C[C@@H](O)[C@H](N)C(=O)O; Hyp = O=C(O)[C@@H]1C[C@@H](O)CN1
# Key:
# Format in all cases: physicochemical
# [1] = Particle size distribution (d10, d50) by Malvern particle size analyzer / laser diffraction; conditions: after drying
# Method: […] Wherein, d10 and d50 are means known for indicating the particle size distribution. d50 refers to a value of particle size, and the size of 50 vol/% of particles is smaller than said value. D10 refers to a value of particle size, and the size of 10 vol/% of particles is smaller than said value. The preferred method for determining d10 and d50 is laser diffraction, d50 of the crystalline powder of the compound of formula I according to the present invention is determined as 10-100 um, and d10 is determined as 1-9 um. Preferably, d50 of the crystalline powder is 20-50 um, and d10 thereof is 1-5 um. Before solid-liquid separation, d50 of the crystalline powder of the compound of formula I is 10-100 um, and d10 thereof is 1-9 um. Preferably, d50 of the crystalline powder is 20-50 um, and d10 thereof is 3-6 um.
# [2] = Bulk density of powder by cylinder measurement; conditions: after drying
# Method: “Bulk density of powder” is a measurement standard for the relative importance of the interaction between microparticles by comparing the bulk density and tapped density of the powder. Methods for measuring bulk density of powder are known in the art; for example, it can be determined by cylinder measurement, volumetric measurement, and container measurement. Bulk density of the crystalline powder of the compound of formula I according to the present invention is determined as less than 0.7 g/mL, preferably less than 0.6 g/mL, most preferably less than 0.5 g/mL, by cylinder measurement.
# [3] = Ratio of dry weight to wet weight (Dry/Wet) of filtered solids; conditions: wet solids weighed after filtration, before drying
# Description: As used herein, the term “Dry/Wet” and “ratio of dry weight to wet weight” can be used interchangeably, both of which refer to the ratio of the weight of a compound without solvent(s) to the weight of the compound with solvent(s). In the present invention, wet weight of crystals is obtained by filtering the crystallized solids until no noticeable droplet outflows and weighing the solids.
# [4] = Vacuum-drying at 25° C. with a water system until no organic solvent detected by GC; purity by HPLC; conditions: for time Needed (for drying): 25° C., vacuum-drying with a water system until no organic solvent detected by GC; for Purity before drying / Purity after drying: HPLC; for Purity before drying: 5 g of solids; for Purity after drying: vacuum-dried at 25° C. with a water system until no organic solvent detected by GC
# Description: High performance liquid chromatography (HPLC) is a common method for determining the purity of a compound, wherein a liquid is used as the mobile phase and a high-pressure transfusion system is used for pumping the mobile phase, such as single solvents with different polarities, a mixture of solvents at different proportions, or buffers, into a column packed with a stationary phase. Each component is separated in the column, and then enters into a detector for detection, thereby analyzing a sample. In the present invention, HPLC is used for determining the purity of the compound of formula I and studying the stability of a sample. Conditions of the HPLC method are listed as follows:
# Analysis Column: YMC-ODS 250×4.6 mm, 5 μm;
# Mobile phase: acetonitrile:phosphate buffer (pH 3.0)=45:70;
# Column temperature: 35° C.;
# Diluent: aqueous phosphate buffer;
# Detection wavelength: 210 nm;
# Gas chromatography (GC) used to separate and measure trace impurities in a compound is an accurate, qualitative and quantitative method of analysis. In the present invention, the content of organic solvents in the crystalline powder of the compound of formula I obtained in the present invention is measured by gas chromatography (GC).
# 5 g of solids were prepared according to the methods of Examples 2-10 and Comparative Examples 1-3 respectively, placed at 25° C., and vacuum-dried together with a water system until no organic solvent was detected through GC. The time for drying was compared, and the purity of the sample was analyzed.
SMILES,"d10, particle size of the crystalline powder [1] [um]","d50, particle size of the crystalline powder [1] [um]",Bulk density [2] [g/mL],ratio of dry weight to wet weight (Dry/Wet) [3],time Needed (for drying) [4] [h],Purity before drying [4] [%],Purity after drying [4] [%]
"CCCCCOc1ccc(-c2cc(-c3ccc(C(=O)N[C@H]4C[C@@H](O)[C@@H](O)NC(=O)[C@@H]5[C@@H](O)[C@@H](C)CN5C(=O)[C@H]([C@H](O)CC(N)=O)NC(=O)[C@H]([C@H](O)[C@@H](O)c5ccc(O)c(OS(=O)(=O)[O-])c5)NC(=O)[C@@H]5C[C@@H](O)CN5C(=O)[C@H]([C@@H](C)O)NC4=O)cc3)no2)cc1.[Na+] [Example 8] (X1-[Orn(4R-OH,5R-OH)]T[Hyp][hTyr(3S-OH,4S-OH,3'-OSO3H)][Gln(3R-OH)][Pro(3S-OH,4S-Me)]; lactam 1-C)",2.6,18.7,0.38,0.45,6,99.52,99.46
"CCCCCOc1ccc(-c2cc(-c3ccc(C(=O)N[C@H]4C[C@@H](O)[C@@H](O)NC(=O)[C@@H]5[C@@H](O)[C@@H](C)CN5C(=O)[C@H]([C@H](O)CC(N)=O)NC(=O)[C@H]([C@H](O)[C@@H](O)c5ccc(O)c(OS(=O)(=O)[O-])c5)NC(=O)[C@@H]5C[C@@H](O)CN5C(=O)[C@H]([C@@H](C)O)NC4=O)cc3)no2)cc1.[Na+] [Example 10] (X1-[Orn(4R-OH,5R-OH)]T[Hyp][hTyr(3S-OH,4S-OH,3'-OSO3H)][Gln(3R-OH)][Pro(3S-OH,4S-Me)]; lactam 1-C)",8.3,100,0.56,0.63,9,99.5,99.43
"CCCCCOc1ccc(-c2cc(-c3ccc(C(=O)N[C@H]4C[C@@H](O)[C@@H](O)NC(=O)[C@@H]5[C@@H](O)[C@@H](C)CN5C(=O)[C@H]([C@H](O)CC(N)=O)NC(=O)[C@H]([C@H](O)[C@@H](O)c5ccc(O)c(OS(=O)(=O)[O-])c5)NC(=O)[C@@H]5C[C@@H](O)CN5C(=O)[C@H]([C@@H](C)O)NC4=O)cc3)no2)cc1.[Na+] [Example 2] (X1-[Orn(4R-OH,5R-OH)]T[Hyp][hTyr(3S-OH,4S-OH,3'-OSO3H)][Gln(3R-OH)][Pro(3S-OH,4S-Me)]; lactam 1-C)",3,31.9,0.45,0.45,7,99.68,99.68
"CCCCCOc1ccc(-c2cc(-c3ccc(C(=O)N[C@H]4C[C@@H](O)[C@@H](O)NC(=O)[C@@H]5[C@@H](O)[C@@H](C)CN5C(=O)[C@H]([C@H](O)CC(N)=O)NC(=O)[C@H]([C@H](O)[C@@H](O)c5ccc(O)c(OS(=O)(=O)[O-])c5)NC(=O)[C@@H]5C[C@@H](O)CN5C(=O)[C@H]([C@@H](C)O)NC4=O)cc3)no2)cc1.[Na+] [Example 9] (X1-[Orn(4R-OH,5R-OH)]T[Hyp][hTyr(3S-OH,4S-OH,3'-OSO3H)][Gln(3R-OH)][Pro(3S-OH,4S-Me)]; lactam 1-C)",1.3,20,0.54,0.62,8.5,99.42,99.38
